In brackets after ≈: the same amount, converted by molar mass.
How the values were obtained:
Type in all cases: cell-based
[1] = tested on: S. aureus resistant to meticillin; experiment: Antibacterial activity, microdilution in culture broth (NCCLS), strain A; settings: Staphylococcus aureus, G (+) hospital strain, inoculum 5×10^5 UFC/ml
Description: (§1) The antibacterial activity of the new synthesised compounds on the various strains of the bacterial species was implemented using the technique of microdilution in culture broth according to the regulations of the National Committee for Clinical Laboratory Standards (NCCLS), (NCCLS. 1993. Methods for dilution antimicrobial susceptibility tests for bacteria that grow aerobically. Approved standard M7-A3. NCCLS, Vilanova. Pa., and NCCLS. 1993. Methods for dilution antimicrobial susceptibility tests for anaerobic bacteria […]. Approved standard M1-A3. NCCLS, Vilanova. Pa.).
(§2) The inoculum used was 5×10^5 UFC/ml following dilution of the cultures overnight in the exponential phase of bacterial growth.
(§3) The MIC expressed in mg/l was defined as the minimum concentration of antibiotic which inhibited any visible growth.
(§4) Linezolid was included as comparative compound.
(§5) The compounds were tested on the strains of G(+) and G(−) bacteria set out in Table 1, in which: […]

[2] = tested on: E. faecalis resistant to vancomycin; experiment: Antibacterial activity, microdilution in culture broth (NCCLS), strain B; settings: Enterococcus faecalis, G (+) hospital strain, inoculum 5×10^5 UFC/ml
Description: as §1, §2, §3, §4, §5

[3] = tested on: S. pneumoniae resistant to penicillin; experiment: Antibacterial activity, microdilution in culture broth (NCCLS), strain C; settings: Streptococcus pneumoniae, G (+) hospital strain, inoculum 5×10^5 UFC/ml
Description: as §1, §2, §3, §4, §5

S. agalactiae = experiment: Antibacterial activity, microdilution in culture broth (NCCLS), strain D; settings: Streptococcus agalactiae, G (+) hospital strain, inoculum 5×10^5 UFC/ml
Description: as §1, §2, §3, §4, §5

S. epidermidis = experiment: Antibacterial activity, microdilution in culture broth (NCCLS), strain E; settings: Staphylococcus epidermidis, G (+) hospital strain, inoculum 5×10^5 UFC/ml
Description: as §1, §2, §3, §4, §5

S. pyogenes = experiment: Antibacterial activity, microdilution in culture broth (NCCLS), strain F; settings: Streptococcus pyogenes, G (+) hospital strain, inoculum 5×10^5 UFC/ml
Description: as §1, §2, §3, §5

B. fragilis = experiment: Antibacterial activity, microdilution in culture broth (NCCLS), strain G (anaerobic); settings: Bacteroides fragilis, anaerobic hospital strain, inoculum 5×10^5 UFC/ml
Description: as §1, §2, §3, §4, §5

E. coli = experiment: Antibacterial activity, microdilution in culture broth (NCCLS), strain H; settings: Escherichia coli, G (−) hospital strain, inoculum 5×10^5 UFC/ml
Description: as §1, §2, §3, §4, §5

H. influenzae = experiment: Antibacterial activity, microdilution in culture broth (NCCLS), strain I; settings: Haemophilus influenzae, G (−) hospital strain, inoculum 5×10^5 UFC/ml
Description: as §1, §2, §3, §4, §5

M. Catarrahalis = experiment: Antibacterial activity, microdilution in culture broth (NCCLS), strain J; settings: G (−) hospital strain, inoculum 5×10^5 UFC/ml
Description: as §1, §2, §3, §4, §5

Row | SMILES | MIC [1] [µg/mL] | MIC [2] [µg/mL] | MIC [3] [µg/mL] | MIC (S. agalactiae) [µg/mL] | MIC (S. epidermidis) [µg/mL] | MIC (S. pyogenes) [µg/mL] | MIC (B. fragilis) [µg/mL] | MIC (E. coli) [µg/mL] | MIC (H. influenzae) [µg/mL] | MIC (M. Catarrahalis) [µg/mL]
1 | CC(=O)NC[C@H]1CN(c2ccc(N3CCN(c4c(F)cc5c(=O)c(C(=O)O)cn6c5c4OCC6C)CC3)cc2)C(=O)O1 (stereo partly drawn) [EXAMP. 5, 9-(4-{4-[5-(S)-(acetylamino-methyl)-2-oxo-oxazolidin-3-yl]-phenyl}-piperazin-1-yl)-8-fluoro-3-methyl-6-oxo-2,3-dihydro-6H-1-oxa-3a-aza-phenalen-5-carboxylic Acid] | 0.5 (≈ 0.863 µM) | 0.5 (≈ 0.863 µM) | 0.5 (≈ 0.863 µM) | 0.5 (≈ 0.863 µM) | 0.25 (≈ 0.431 µM) | 0.5 (≈ 0.863 µM) | 2 (≈ 3.45 µM) | 4 (≈ 6.9 µM) | 1 (≈ 1.73 µM) | 1 (≈ 1.73 µM)
2 | CC(=O)NC[C@H]1CN(c2ccc(N3CCN(c4nc5c(cc4F)c(=O)c(C(=O)O)cn5C4CC4)CC3)c(F)c2)C(=O)O1 [EXAMP. 21, 7-(4-{4-[5-(S)-(acetylamino-methyl)-2-oxo-oxazolidin-3-yl]-2-fluoro-phenyl}-piperazin-1-yl)-1-cyclopropyl-6-fluoro-4-oxo-1,4-dihydro-[1,8]Naphthyridine-3-carboxylic Acid] | 0.25 (≈ 0.429 µM) | < 0.125 | < 0.125 | < 0.125 | < 0.125 | < 0.125 | 0.25 (≈ 0.429 µM) | 64 (≈ 110 µM) | 2 (≈ 3.43 µM) | 0.5 (≈ 0.858 µM)
3 | CCOC(=O)NC[C@H]1CN(c2ccc(N3CCN(c4cc5c(cc4F)c(=O)c(C(=O)O)cn5C4CC4)CC3)c(F)c2)C(=O)O1 [EXAMP. 11, 1-cyclopropyl-7-(4-{4-[5-(S)-(ethoxycarbonylamino-methyl)-2-oxo-oxazolidin-3-yl]-2-fluoro-phenyl}-piperazin-1-yl)-6-fluoro-4-oxo-1,4-dihydro-quinoline-3-carboxylic Acid] | 0.5 (≈ 0.818 µM) | 0.5 (≈ 0.818 µM) | 0.5 (≈ 0.818 µM) | 1 (≈ 1.64 µM) | 0.125 (≈ 0.204 µM) | 0.5 (≈ 0.818 µM) | 1 (≈ 1.64 µM) | 32 (≈ 52.3 µM) | 4 (≈ 6.54 µM) | 1 (≈ 1.64 µM)
4 | CCn1cc(C(=O)O)c(=O)c2cc(F)c(N3CCN(c4ccc(N5C[C@H](CNC(C)=O)OC5=O)cc4F)CC3)cc21 [EXAMP. 4, 7-(4-{4-[5-(S)-(acetylamino-methyl)-2-oxo-oxazolidin-3-yl]-2-fluoro-phenyl}-piperazin-1-yl)-1-ethyl-6-fluoro-4-oxo-1,4-dihydro-quinoline-3-carboxylic Acid] | 0.25 (≈ 0.439 µM) | 0.25 (≈ 0.439 µM) | < 0.125 | < 0.125 | < 0.125 | < 0.125 | 0.5 (≈ 0.878 µM) | 16 (≈ 28.1 µM) | 2 (≈ 3.51 µM) | 1 (≈ 1.76 µM)
5 | CC(=O)NC[C@H]1CN(c2ccc(N3CCOCC3)c(F)c2)C(=O)O1 [Linezolid, reference compound] | 2 (≈ 5.93 µM) | 2 (≈ 5.93 µM) | 1 (≈ 2.96 µM) | 2 (≈ 5.93 µM) | 1 (≈ 2.96 µM) |  | 2 (≈ 5.93 µM) | > 64 | 16 (≈ 47.4 µM) | 16 (≈ 47.4 µM)
6 | CC(=O)NC[C@H]1CN(c2ccc(N3CCN(c4c(F)cc5c(=O)c(C(=O)O)cn(CCF)c5c4F)CC3)c(F)c2)C(=O)O1 [EXAMP. 22, 7-(4-{4-[5-(S)-(acetylamino-methyl)-2-oxo-oxazolidin-3-yl]-2-fluoro-phenyl}-piperazin-1-yl)-6,8-difluoro-1-(2-fluoro-ethyl)-4-oxo-1,4-dihydro-quinoline-3-carboxylic Acid] | < 0.125 | < 0.125 | 0.25 (≈ 0.413 µM) | < 0.125 | < 0.125 | < 0.125 | 0.5 (≈ 0.826 µM) | 64 (≈ 106 µM) | 2 (≈ 3.3 µM) | 0.5 (≈ 0.826 µM)
